Test results from patent publication US12708116B2, “Herbicidal compositions comprising 2,4-D” (BASF SE, priority 2023, dated 2026).

Key:
Assay in all cases: Post-emergence application in field trials
[1] = tested on: ECHCG; assay type: in vivo, Echinochloa crus-galli
[2] = tested on: ZEAMX; details: growth stage 15-16
[3] = tested on: HORVW; details: growth stage 23-29, height 20-25 cm
[4] = tested on: DIGSA
[5] = tested on: CYPES; details: 21 DAT, water volume 140 l/ha
[6] = tested on: DATST; details: Example 6; 21 DAT; g ai/ha A-1 12.5, B-5 1066, C-11 400
[7] = tested on: SETVE; details: Example 6, g ai/ha A-1 12.5, B-5 1066, C-11 400, growth stage 21-23, height 10-15 cm
[8] = tested on: SETVI; assay type: in vivo, Setaria viridis; details: 15 DAT; g ai/ha A-1 12.5, B-5 1066, C-10 840; growth stage 13-19; height 2-18 cm; water volume 140 l/ha
[9] = tested on: AMAPA; details: 14 DAT, growth stage 12-24, height 5-30 cm, water volume 140 l/ha
[10] = Example 11, 21 DAT, g ai/ha A-1 12.5, B-4 1066, C-4 12.5, height 50-60 cm
[11] = Example 11, 21 DAT, g ai/ha A-1 12.5, B-4 1066, C-4 12.5
[12] = Example 7, 28 DAT, g ai/ha A-1 12.5, B-4 1066, C-11 400, growth stage 23-30, height 15-20 cm
[13] = Example 7, 28 DAT, g ai/ha A-1 12.5, B-4 1066, C-11 400, height 50-60 cm
[14] = Example 7, 28 DAT, g ai/ha A-1 12.5, B-4 1066, C-11 400
[15] = Example 9, 28 DAT, g ai/ha A-1 12.5, B-4 1066, C-12 252, growth stage 23-30, height 15-20 cm
[16] = Example 9, 28 DAT, g ai/ha A-1 12.5, B-4 1066, C-12 252, height 50-60 cm
[17] = Example 9, 21 DAT, g ai/ha A-1 12.5, B-4 1066, C-12 252

C#CCN1C(=O)C(F)(F)Oc2cc(F)c(-n3c(=O)n(C)c(=S)n(C)c3=O)cc21 [C-4, trifludimoxazin]
% Herbicidal activity ([1]; Example 10, 21 DAT, g ai/ha A-1 12.5, B-5 1066, C-4 12.5, growth stage 23-30, height 15-20 cm): 30%
% Herbicidal activity [2, 10]: 30%
% Herbicidal activity ([3]; Example 10, 21 DAT, g ai/ha A-1 12.5, B-5 1066, C-4 12.5): 30%
% Herbicidal activity [3, 11]: 20%

CP(=O)(O)CCC(N)C(=O)O (centres unmarked) [C-11, glufosinate-ammonium]
% Herbicidal activity ([1]; Example 6, 7 DAT, g ai/ha A-1 12.5, B-5 1066, C-11 400, growth stage 23-30, height 15-20 cm): 30%
% Herbicidal activity ([1]; Example 6, 28 DAT, g ai/ha A-1 12.5, B-5 1066, C-11 400, growth stage 23-30, height 15-20 cm): 70%
% Herbicidal activity [1, 12]: 60%
% Herbicidal activity ([4]; 21 DAT, g ai/ha A-1 12.5, B-5 1066, C-11 655, height 2-8 cm, water volume 140 l/ha): 49%
% Herbicidal activity ([4]; 21 DAT, g ai/ha A-1 25, B-5 1066, C-11 655, height 2-8 cm, water volume 140 l/ha): 49%
% Herbicidal activity ([4]; 21 DAT, g ai/ha A-1 50, B-5 1066, C-11 655, height 2-8 cm, water volume 140 l/ha): 49%
% Herbicidal activity ([4]; Example 6, 7 DAT, g ai/ha A-1 12.5, B-5 1066, C-11 400, growth stage 21-22, height 15-20 cm): 25%
% Herbicidal activity ([4]; Example 6, 21 DAT, g ai/ha A-1 12.5, B-5 1066, C-11 400, growth stage 21-22, height 15-20 cm): 20%
% Herbicidal activity ([5]; g ai/ha A-1 12.5, B-5 1066, C-11 655): 18%
% Herbicidal activity ([5]; g ai/ha A-1 50, B-5 1066, C-11 655): 18%
% Herbicidal activity [6]: 50%
% Herbicidal activity ([2]; Example 6, 7 DAT, g ai/ha A-1 12.5, B-5 1066, C-11 400, height 25-30 cm): 40%
% Herbicidal activity ([2]; Example 6, 28 DAT, g ai/ha A-1 12.5, B-5 1066, C-11 400, height 50-60 cm): 70%
% Herbicidal activity [2, 13]: 40%
% Herbicidal activity ([7]; 7 DAT): 55%
% Herbicidal activity ([7]; 21 DAT): 40%
% Herbicidal activity ([3]; Example 6, 28 DAT, g ai/ha A-1 12.5, B-5 1066, C-11 400): 30%
% Herbicidal activity [3, 14]: 10%

CNC.O=C(O)COc1ccc(Cl)cc1Cl [B-4, 2,4-D-dimethylammonium]
% Herbicidal activity [1, 12]: 0%
% Herbicidal activity [1, 15]: 0%
% Herbicidal activity ([2]; Example 5, 21 DAT, g ai/ha A-1 12.5, B-4 1066, height 50-60 cm): 0%
% Herbicidal activity [2, 13]: 0%
% Herbicidal activity [2, 16]: 0%
% Herbicidal activity [2, 10]: 0%
% Herbicidal activity ([3]; Example 5, 7 DAT, g ai/ha A-1 12.5, B-4 1066): 0%
% Herbicidal activity [3, 14]: 0%
% Herbicidal activity [3, 17]: 0%
% Herbicidal activity [3, 11]: 0%

CP(=O)(O)CC[C@H](N)C(=O)O.N [C-12, glufosinate-P-ammonium]
% Herbicidal activity ([1]; Example 8, 7 DAT, g ai/ha A-1 12.5, B-5 1066, C-12 252, growth stage 23-30, height 15-20 cm): 50%
% Herbicidal activity ([1]; Example 8, 21 DAT, g ai/ha A-1 12.5, B-5 1066, C-12 252, growth stage 23-30, height 15-20 cm): 70%
% Herbicidal activity ([1]; Example 8, 28 DAT, g ai/ha A-1 12.5, B-5 1066, C-12 252, growth stage 23-30, height 15-20 cm): 60%
% Herbicidal activity [1, 15]: 60%
% Herbicidal activity ([2]; Example 8, 28 DAT, g ai/ha A-1 12.5, B-5 1066, C-12 252, height 50-60 cm): 70%
% Herbicidal activity [2, 16]: 60%
% Herbicidal activity ([3]; Example 8, 21 DAT, g ai/ha A-1 12.5, B-5 1066, C-12 252): 20%
% Herbicidal activity [3, 17]: 60%

O=C(O)CNCP(=O)(O)O [C-10, glyphosate-potassium]
% Herbicidal activity ([1]; 13 DAT, g ai/ha A-1 12.5, B-5 1066, C-10 840, growth stage 21-26, height 15-30 cm, water volume 187 l/ha): 90%
% Herbicidal activity ([1]; 13 DAT, g ai/ha A-1 25, B-5 1066, C-10 840, growth stage 21-26, height 15-30 cm, water volume 187 l/ha): 90%
% Herbicidal activity ([1]; 13 DAT, g ai/ha A-1 50, B-5 1066, C-10 840, growth stage 21-26, height 15-30 cm, water volume 187 l/ha): 90%
% Herbicidal activity [8]: 93%
% Herbicidal activity ([9]; g ai/ha A-1 12.5, B-5 1066, C-10 840): 22%
% Herbicidal activity ([9]; g ai/ha A-1 25, B-5 1066, C-10 840): 22%
% Herbicidal activity ([4]; 15 DAT, g ai/ha A-1 12.5, B-5 1066, C-10 840, growth stage 13-19, height 2-13 cm, water volume 140 l/ha): 93%
